Test results taken from patent EP1077967B1, “BIPHENYL OXO-ACETIC ACIDS USEFUL IN THE TREATMENT OF INSULIN RESISTANCE AND HYPERGLYCEMIA” (Wyeth, priority 1998, dated 1999).
Where a name gives a salt, the structure may show the parent alone. Read-outs that look alike come from different tables or passages of the source.

Tests used:
[1] = tested on: rat hepatic microsomal PTPases; assay: Inhibition of tri-phosphorylated insulin receptor dodecaphosphopeptide dephosphorylation by rat hepatic PTPases (malachite green); type: biochemical; conditions: rat liver microsomal fraction; for % Change from Control: PTPase activity, compound at 50 µM; for IC50: % Change from Control
[2] = target: T1, Human recombinant PTP1B (Homo sapiens, UniProt P18031); assay: Inhibition of tri-phosphorylated insulin receptor dodecaphosphopeptide dephosphorylation by hPTP1B (malachite green); type: biochemical; conditions: for inhibition at 2.5 µM: read-out: change of PTP1B activity (percent of phosphatase control)
T1 construct: made in house
T1 sequence (P18031 1-435): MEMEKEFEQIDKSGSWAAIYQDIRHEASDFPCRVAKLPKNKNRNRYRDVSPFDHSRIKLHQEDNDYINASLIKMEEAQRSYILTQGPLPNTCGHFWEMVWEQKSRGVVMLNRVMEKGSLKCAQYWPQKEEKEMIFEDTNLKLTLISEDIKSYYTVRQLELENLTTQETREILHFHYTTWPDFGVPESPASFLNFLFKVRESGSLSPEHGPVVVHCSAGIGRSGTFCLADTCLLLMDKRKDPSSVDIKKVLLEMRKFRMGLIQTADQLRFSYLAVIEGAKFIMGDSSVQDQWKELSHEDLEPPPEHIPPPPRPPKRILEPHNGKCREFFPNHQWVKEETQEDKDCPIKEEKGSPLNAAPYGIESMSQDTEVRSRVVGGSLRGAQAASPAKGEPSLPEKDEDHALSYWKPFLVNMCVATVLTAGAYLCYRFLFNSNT

[3] = recombinant PTP1B, dodecaphosphopeptide substrate

Compound | IC50 [2, 3] [nM] | further results
O=C(O)C(Cc1ccccc1)Oc1ccc(-c2ccc(-c3c(Br)oc4ccccc34)cc2)cc1 (centres unmarked) [Example 7, 2-[4'-(2-Bromo-benzofuran-3-yl)-biphenyl-4-yloxy]-3-phenyl-propionic acid] |  | % Change from Control [1]: -73%; inhibition at 2.5 µM ([2]; compound at 2.5 uM): 58%
O=C(O)C(Cc1ccccc1)Oc1ccc(-c2ccc(-c3coc4ccccc34)cc2)cc1 (centres unmarked) [Example 5, 2-(4'-Benzofuran-3-yl-biphenyl-4-yloxy)-3-phenyl-propionic acid] |  | % Change from Control [1]: -70%; change of PTP1B activity (percent of phosphatase control) ([2]; compound at 2.5 uM): -47 (2.5 uM)
O=C(O)COc1ccc(-c2ccc(-c3coc4ccccc34)cc2)cc1 [Example 4, (4'-Benzofuran-3-yl-biphenyl-4-yloxy)-acetic acid] |  | % Change from Control [1]: -11%; change of PTP1B activity (percent of phosphatase control) ([2]; compound at 2.5 uM): -51 (2.5 uM)
CCCCc1oc2ccccc2c1-c1ccc(-c2ccc(O)cc2)cc1 [Example 8, 4'-(2-Butyl-benzofuran-3-yl)-biphenyl-4-ol] | 740 | % Change from Control [1]: -28%
CCCCc1oc2ccccc2c1-c1ccc(-c2ccc(OCC(=O)O)cc2)cc1 [Example 9, [4'-(2-Butyl-benzofuran-3-yl)-biphenyl-4-yloxy]-acetic acid] | 2190 | % Change from Control [1]: -75%
COc1ccc(Cc2sc3ccccc3c2-c2ccc(-c3ccc(O[C@H](Cc4ccccc4)C(=O)O)cc3)cc2)cc1 [Example 20] |  | IC50 [1]: 41600 nM
CC1(C)Oc2ccc(Cc3sc4ccccc4c3-c3ccc(-c4ccc(O[C@H](Cc5ccccc5)C(=O)O)cc4)cc3)cc2O1 [Example 27, (2R) 2-{4'-[2-(2,2-Dimethyl-benzo[1,3]dioxol-5-ylmethyl)-benzo[b]thiophene-3-yl)-biphenyl-4-yloxy]-3-phenyl-propionic acid] | 77 | IC50 [1]: 24900 nM
O=C(O)[C@@H](Cc1ccccc1)Oc1ccc(-c2ccc(-c3nc4cccnc4n3Cc3ccccc3)cc2)cc1 [Example 69, (2R)-2-[4'-(3-Benzyl-3H-imidazol[4,5-b]pyridin-2-yl)-biphenyl-4-yloxy]-3-phenyl-propionic acid sodium salt] |  | change of PTP1B activity (percent of phosphatase control) ([2]; compound at 1 uM): -20 (1 uM)
Oc1ccc(-c2ccc(-c3c(Cc4ccccc4)sc4ccccc34)cc2)cc1Br [Example 34, 4'-(2-Benzyl-benzo[b]thiophen-3-yl)-3-bromo-biphenyl-4-ol] | 1070 | 
O=C(O)[C@@H](Cc1ccccc1)Oc1ccc(-c2ccc(-c3c(Cc4ccccn4)sc4ccccc34)cc2)cc1 [Example 33, (2R)-3-phenyl-2-[4'-(2-pyridin-2-ylmethyl-benzo[b]thiophene-3-yl)-biphenyl-4-yloxy]-propionic acid] | 1550 | 
Cc1sc(Cc2ccccc2)c(-c2ccc(-c3ccc(O[C@H](Cc4ccccc4)C(=O)O)cc3)cc2)c1C [Example 64, (2R)-2-[4'-(2-Benzyl-4,5-dimethyl-thiophen-3-yl)-biphenyl-4-yloxy]-3-phenyl-propionic acid] | 512 | 
O=C(O)[C@H](Cc1ccccc1)Oc1ccc(-c2ccc(-c3c(Cc4ccccc4)oc4cccnc34)cc2)cc1 [Example 31, (2S)-2-[4'-(2-Benzyl-furo[2,3]pyridin-3-yl)-biphenyl-4-yloxy]-3-phenyl-propionic acid] | 590 | 
O=C(O)[C@@H](Cc1ccccc1)Oc1ccc(-c2ccc(-c3c(Cc4ccccc4)oc4ccccc34)cc2)cc1[N+](=O)[O-] [Example 68, (2R)-2-[4'-(2-Benzyl-benzofuarn-3-yl)-3-nitro-biphenyl-4-yloxy]-3-phenyl-propionic acid] |  | IC50 [2]: 231 nM
O=C(O)[C@@H](Cc1ccccc1)Oc1ccc(-c2ccc(-c3c(Cc4ccccn4)sc4ccccc34)cc2)cc1 [Example 32, (2R)-3-phenyl-2-[4'-(2-pyridin-2-ylmethyl-benzo[b]thiophene-3-yl)-biphenyl-4-yloxy]-propionic acid sodium salt] | 1510 | 
COC(=O)[C@H](Cc1ccccc1)Oc1ccc(-c2ccc(-c3c(Cc4ccccc4)oc4ccccc34)cc2)cc1 [Example 23, (2S)-2-[4'-(2-Benzyl-benzofuran-3-yl)-biphenyl-4-yloxy]-3-phenyl-propionic acid methyl ester] |  | inhibition at 2.5 µM ([2]; compound at 2.5 uM): 36%

More lines, in order of falling IC50 [2, 3], values ahead:

IC50 [2, 3] [nM] | Compound | further results
401 | O=C(O)[C@H](Oc1ccc(-c2ccc(-c3c(Cc4ccccc4)oc4ccccc34)cc2)cc1)c1ccccc1 [Example 18, (2R)-2-[4'-(2-Benzyl-benzofuran-3-yl)-biphenyl-4-yloxy]-phenyl-acetic acid] | IC50 [1]: 24200 nM
369 | O=C(O)c1ccc(COc2ccc(-c3ccc(-c4c(Cc5ccccc5)oc5ccccc45)cc3)cc2)cc1 [Example 63, 4-[4'-(2-benzyl-benzofuran-3-yl)-biphenyl-4-yloxymethyl]-benzoic acid] | 
225 | O=C(O)[C@H](CCc1ccccc1)Oc1ccc(-c2ccc(-c3c(Cc4ccccc4)oc4ccccc34)cc2)cc1 [Example 47, (2S)-2-[4'-(2-benzyl-benzofuran-3-yl)-biphenyl-4-yloxy]-4-phenyl-butyric acid] | 
118 | CCCCc1sc2ccccc2c1-c1ccc(-c2ccc(OC(C(=O)O)c3ccccc3)cc2)cc1 (centres unmarked) [Example 21, [4'-(2-Butyl-benzo[b]thiophene-3-yl)-biphenyl-4-yloxy]-phenyl-acetic acid] | IC50 [1]: 35500 nM
105 | O=C(O)COc1c(Br)cc(-c2ccc(-c3c(Cc4ccccc4)sc4ccccc34)cc2)cc1Br [Example 39, [4'-(2-Benzyl-benzo[b]thiophene-3-yl)-3,5-dibromo-biphenyl-4-yloxy]acetic acid] | 
85 | COc1ccc(Cc2sc3ccccc3c2-c2ccc(-c3ccc(O[C@H](Cc4ccccc4)C(=O)O)cc3)cc2)c(OC)c1 [Example 26, (2R)-2-{4'-[2-(2,4-Dimethoxy-benzyl)-benzo[b]thiophen-3-yl]-biphenyl-4-yloxy}-3-phenyl-propionic acid] | IC50 [1]: 20000 nM
74 | Cc1cc(-c2ccc(-c3c(Cc4ccccc4)oc4ccccc34)cc2)cc(C)c1O[C@H](Cc1ccccc1)C(=O)O [Example 65, (2R)-2-[4'-(2-Benzyl-benzofuarn-3-yl)-3,5-dimethyl-biphenyl-4-yloxy]-3-phenyl-propionic acid] | 
71 | COc1ccc(-c2cc(-c3ccc(-c4c(Cc5ccccc5)sc5ccccc45)cc3)ccc2OCC(=O)O)cc1OC [Example 60] | 
56 | O=C(O)[C@H](Cc1ccccc1)Oc1ccc(-c2ccc(-c3c(Cc4ccccc4)oc4ccccc34)cc2)cc1Br [Example 50, (2S)-2-[4'-(2-benzyl-benzofuran-3-yl)-3-bromo-biphenyl-4-yloxy]-3-phenyl-propionic acid] | 
54 | COC(=O)[C@@H](CCNC(=O)c1ccccc1C(=O)O)Oc1c(Br)cc(-c2ccc(-c3c(Cc4ccccc4)sc4ccccc34)cc2)cc1Br [Example 44, N-{(3R)-3-[4'-(2-benzyl-benzo[b]thiophen-3-yl)-3,5-dibromo-biphenyl-4-yloxy]-3-methoxycarbonyl-propyl]-phthalamic acid] | 
53 | COc1ccc(-c2cc(-c3ccc(-c4c(Cc5ccccc5)sc5ccccc45)cc3)ccc2O[C@H](Cc2ccccc2)C(=O)O)cc1 [Example 38, (2R)-2-[4-(2-Benzyl-benzo[b]thiophene-3-yl)-4"-methoxy-[1,1';3',1"]terphenyl-4'-yloxy]-3-phenvl-propionic acid] | IC50 [1]: 19300 nM
52 | O=C(O)C(Cc1ccccc1)Oc1ccc(-c2ccc(-c3c(Cc4ccccc4)sc4ccccc34)cc2)cc1-c1ccc(Cl)cc1 (centres unmarked) [Example 46, (2R')-2-[4-(2-benzyl-benzo[b]thiophene-3-yl)-4"-chloro-[1,1':3',1"]terphenyl-4'-yloxy]-3-phenyl-propionic acid] | 
52 | CCCCC(Oc1c(Br)cc(-c2ccc(-c3c(Cc4ccccc4)oc4ccccc34)cc2)cc1Br)C(=O)O (centres unmarked) [Example 52, 2-[4'-(2-benzyl-benzofuran-3-yl)-3,5-dibromo-biphenyl-4-yloxy]-hexanoic acid] | 
47 | COc1ccc(-c2cc(-c3ccc(-c4c(Cc5ccccc5)sc5ccccc45)cc3)cc(Br)c2OCC(=O)O)cc1OC [Example 56, [4-(2-benzyl-benzo[b]-thiophen-3-yl)-5'-bromo-3",4"-dimethoxy[1,1';3',1"-terphenyl]-4'-yloxy]-acetic acid] | 
44 | O=C(O)[C@@H](CCN1C(=O)c2ccccc2C1=O)Oc1c(Br)cc(-c2ccc(-c3c(Cc4ccccc4)sc4ccccc34)cc2)cc1Br [Example 43, (2R)-2-[4'-(2-Benzyl-benzo[b]-thiophen-3-yl)-3,5-dibromo-biphenyl-4-yloxy]-4-(1,3-dioxo-1,3-dihydro-isoindol-2-yl)-butyric acid] | 
38 | O=C(O)[C@H](Cc1ccccc1)Oc1c(Br)cc(-c2ccc(-c3c(Cc4ccccc4)oc4ccccc34)cc2)cc1Br [Example 49, (2S)-2-[4'-(2-benzyl-benzofuran-3-yl)-3,5-dibromo-biphenyl-4-yloxy]-3-phenyl-propionic acid] | 
25 | O=C(O)[C@@H](Cc1ccccc1)Oc1c(Br)cc(-c2ccc(-c3c(Cc4ccccc4)sc4ccccc34)cc2)cc1Br [Example 37, (2R)-2-[4'-(2-Benzyl-benzo[b]thiophene-3-yl)-3,5-dibromo-biphenyl-4-yloxy]-3-phenyl-propionic acid] | IC50 [1]: 36800 nM
23 | CCCCCC[C@H](Oc1c(Br)cc(-c2ccc(-c3c(Cc4ccccc4)oc4ccccc34)cc2)cc1Br)C(=O)O [Example 54, (2S)-2-[4'-(2-benzyl-benzofuran-3-yl)-3,5-dibromo-biphenyl-4-yloxy]-octanoic acid] | 
